Laboratory results from patent US10144729B2, “Isoxazole analogs as FXR agonists and methods of use thereof” (Enanta Pharmaceuticals, Inc., priority 2016, dated 2018).

Target: human FXR (NR1H4) (Homo sapiens (Human), UniProt Q96RI1)
Assay: Human FXR (NR1H4) Assay (Gal4 promoter driven luciferase reporter, CHO cells)
Format: cell-based
Details: for Efficacy (%): FXR reporter assay in CHO cells, efficacy normalized to CDCA set as 100%
Excerpt: Human FXR (NR1H4) Assay Determination of a ligand mediated Gal4 promoter driven transactivation to quantify ligand binding mediated activation of FXR. […] The principle application of this reporter assay system is to quantify functional activity of human FXR. The assay utilizes non-human mammalian cells, CHO (Chinese hamster ovary) cells engineered to express human NR1H4 protein (referred to as FXR). Reporter cells also incorporate the cDNA encoding beetle luciferase which catalyzes the substrates and yields photon emission. Luminescence intensity of the reaction is quantified using a plate-reading luminometer, Envision. Reporter Cells include the luciferase reporter gene functionally linked to an FXR responsive promoter. Thus, quantifying changes in luciferase expression in the treated reporter cells provides a sensitive surrogate measure of the changes in FXR activity. […] The assay is according to the manufacturer's instructions. […] Retrieve Reporter Cells from −80° C. storage. Perform a rapid thaw of the frozen cells by transferring a 10 ml volume of 37° C. cell recovery medium into the tube of frozen cells. Recap the tube of Reporter Cells and immediately place it in a 37° C. water bath for 5-10 minutes. Retrieve the tube of Reporter Cell Suspension from the water bath. Sanitize the outside surface of the tube with a 70% alcohol swab, and then transfer it into the cell culture hood. Dispense 90 μl of cell suspension into each well of the 96-well Assay Plate. Transfer the plate into 37° C. incubator, allowing the cells adherent to the bottom of the well. Dilute compounds in Dilution Plate (DP), and administrate to cells at Assay Plate (AP). DMSO content of the samples was kept at 0.2%. Cells were incubated for additional 22 hours before luciferase activities were measured. Thirty minutes before intending to quantify FXR activity, remove Detection Substrate and Detection Buffer from the refrigerator and place them in a low-light area so that they may equilibrate to room temperature. Remove the plate's lid and discard all media contents by ejecting it into an appropriate waste container. Gently tap the inverted plate onto a clean absorbent paper towel to remove residual droplets. Cells will remain tightly adhered to well bottoms. Add 100 μl of luciferase detection reagent to each well of the assay plate. Allow the assay plate to rest at room temperature for at least 5 minutes following the addition of LDR. Set the instrument (Envision) to perform a single 5 second “plate shake” prior to reading the first assay well. Read time may be 0.5 second (500 mSec) per well.

Sequence of human FXR (NR1H4) (Q96RI1 whole entry, the tested form may be a part): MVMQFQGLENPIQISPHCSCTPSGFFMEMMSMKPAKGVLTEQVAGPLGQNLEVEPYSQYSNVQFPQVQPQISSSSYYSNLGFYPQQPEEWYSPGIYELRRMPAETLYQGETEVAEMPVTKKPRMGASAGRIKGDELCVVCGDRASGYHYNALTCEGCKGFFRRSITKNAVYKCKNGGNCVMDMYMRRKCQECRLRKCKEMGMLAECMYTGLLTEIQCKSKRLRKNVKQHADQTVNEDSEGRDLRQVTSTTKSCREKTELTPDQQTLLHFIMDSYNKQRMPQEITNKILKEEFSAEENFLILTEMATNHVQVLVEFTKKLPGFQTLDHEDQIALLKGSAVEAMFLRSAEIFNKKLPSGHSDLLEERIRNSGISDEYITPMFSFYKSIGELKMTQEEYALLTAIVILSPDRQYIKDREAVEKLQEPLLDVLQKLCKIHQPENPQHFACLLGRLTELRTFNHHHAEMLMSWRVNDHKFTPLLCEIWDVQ

EC50	Efficacy (%)	SMILES
0.1 to 1 µM	271%	CN(C)S(=O)(=O)NC(=O)c1ccc([C@@H]2C[C@H]2c2ccc(OCc3c(-c4c(Cl)cccc4Cl)noc3C3CC3)cc2Cl)cc1 [Example 1a]
1 to 10 µM	194%	CN(C)S(=O)(=O)NC(=O)Nc1ccc([C@@H]2C[C@H]2c2ccc(OCc3c(-c4c(Cl)cccc4Cl)noc3C3CC3)cc2Cl)cc1 [Example 1b]
1 to 10 µM	115%	CC(C)(C)c1ccc(S(=O)(=O)NC(=O)c2ccc([C@@H]3C[C@H]3c3ccc(OCc4c(-c5c(Cl)cccc5Cl)noc4C4CC4)cc3Cl)cc2)cc1 [Example 2a]
0.1 to 1 µM	209%	O=C(NS(=O)(=O)C1CC1)c1ccc([C@@H]2C[C@H]2c2ccc(OCc3c(-c4c(Cl)cccc4Cl)noc3C3CC3)cc2Cl)cc1 [Example 2c]
0.1 to 1 µM	236%	CC(C)(C)c1ccc(S(=O)(=O)NC(=O)Nc2ccc([C@@H]3C[C@H]3c3ccc(OCc4c(-c5c(Cl)cccc5Cl)noc4C4CC4)cc3Cl)cc2)cc1 [Example 2d]
